≈ marks a conversion by molar mass, not a printed value. Where two headings read alike, the source gives them in different places.

The test system of one series is MSSA ATCC 29213. Description: MIC, agar dilution, MSSA ATCC 29213. Type of series: cell-based, S. aureus. Conditions: Staphylococcus aureus. In general terms: In agar dilution the substance is mixed into plates at graded concentrations.
The subject of the next series is MSSA 15. Description: MIC, agar dilution, MSSA 15 (clinical isolate). The class given is cell-based, S. aureus. Conditions: Staphylococcus aureus.
In another series the test system is MSSA 16-1. Description: MIC, agar dilution, MSSA 16-1 (clinical isolate). The class given is cell-based, S. aureus. Particulars: Staphylococcus aureus.
The next series concerns MSSE ATCC 12228. Description: MIC, agar dilution, MSSE ATCC 12228. The class given is cell-based, S. epidermidis. Conditions: Staphylococcus epidermidis.
The next series has as its system MSSE 16-5. Description: MIC, agar dilution, MSSE 16-5 (clinical isolate). Conditions: Staphylococcus epidermidis. Type of series: cell-based, S. epidermidis.
The subject of a further series is S.s ATCC 15305. Description: MIC, agar dilution, S.s ATCC 15305. The class given is cell-based. Particulars: Staphylococcus saprophyticus, ATCC15305.
A further series concerns S.h ATCC 35982. Kind of series: MIC, agar dilution, S.h ATCC 35982. Type of series: cell-based. Conditions: Staphylococcus hominis, ATCC35982.
Another series deals with MRSA 13-18. Kind of series: MIC, agar dilution, MRSA 13-18. Particulars: Staphylococcus aureus. The class given is cell-based.
The next series has as its system MRSA 13-23. Description: MIC, agar dilution, MRSA 13-23. Type of series: cell-based. Conditions: Staphylococcus aureus.
The subject of a further series is MRSA 16-34. Description: MIC, agar dilution, MRSA 16-34. Type of series: cell-based. Conditions: Staphylococcus aureus.
A further series has as its system MRSA ATCC 43300. Kind of series: MIC, agar dilution, MRSA ATCC 43300. The class given is cell-based. Particulars: Staphylococcus aureus.
In another series the test system is MRSA ATCC-B AA-1708. Description: MIC, agar dilution, MRSA ATCC-BAA-1708 (mupA positive). The class given is cell-based. Conditions: Staphylococcus aureus.
The next series deals with MRSA ATCC -BAA-976. Description: MIC, agar dilution, MRSA ATCC-BAA-976 (clindamycin-resistant). The class given is cell-based. Particulars: Staphylococcus aureus.
A further series has as its system VISA ATCC 700698. Kind of series: MIC, agar dilution, VISA ATCC 700698. Type of series: cell-based. Particulars: Staphylococcus aureus.
Another series deals with VISA ATCC 700699. Description: MIC, agar dilution, VISA ATCC 700699. The class given is cell-based. Particulars: Staphylococcus aureus.
The next series has as its system MRSE 13-3. Kind of series: MIC, agar dilution, MRSE 13-3. Type of series: cell-based, S. epidermidis. Conditions: Staphylococcus epidermidis.
The test system of a further series is MRSE 16-5. Kind of series: MIC, agar dilution, MRSE 16-5. The class given is cell-based, S. epidermidis. Particulars: Staphylococcus epidermidis.
A further series in a line: Stability in whole blood. The class given is in vitro ADME, SD rat. Particulars: for Rr (remaining ratio): whole blood, 37 °C. The method, then: Fresh blood was collected on the day of experiment from SD rats and pre-warmed in a water bath at 37 °C. 10 mM test compound or Ems stock solutions were prepared in DMSO, and then diluted with 45% MeOH/H2O to achieve 100 μM dosing solutions. Each dosing solution (2 μL) was incubated with 98 µL of blank blood at 37 °C in water bath for 0, 0.5, 1, 3, 7 and 24 h, respectively. At the end of incubation, for each sample, 100 μL water and 800 μL of stop solution (200 ng/mL tolbutamide plus 20 ng/mL buspirone in ACN) were immediately added to precipitate protein and centrifuge at 4,000 rpm for 20 min. An aliquot of supernatant (100 μL) was then extracted, mixed with 200 μL H2O and then shook at 800 rpm for about 10 min before submitting to LC-MS/MS analysis. The experiment was repeated two times.

The mark [1] stands for this setting: MSSA 16-1, isolated from patients in China, read-out: MIC.
Setting [2] is: S. saprophyticus ATCC 15305, read-out: MIC.
[3] abbreviates: MRSA ATCC-BAA-1708, mupA positive (mupirocin resistance), read-out: MIC.
The mark [4] stands for this setting: VISA ATCC 700698, read-out: MIC.
The mark [5] stands for this setting: VISA ATCC 700699, read-out: MIC.

Regarding `CCCCc1cc2c3ccc(OC)c(O)c3c[n+]3ccc4cc5c(c1c4c23)OCO5` [15c, 1,2-Methylenedioxy-8-hydroxy-9-methoxy-13-butylcycloberberine chloride], the minimum inhibitory concentration (MIC) (as a rule, the lowest concentration found to suppress growth) was 8 µg/mL with MSSA ATCC 29213 (MSSA ATCC 29213, read-out: MIC); 4 µg/mL in the series on MSSA 15 (MSSA 15, isolated from patients in China, read-out: MIC); 4 µg/mL in the series with MSSA 16-1 (setting [1]); 8 µg/mL in the series with MSSE ATCC 12228 (ATCC12228, MSSE ATCC 12228, read-out: MIC); 8 µg/mL in the series with MSSE 16-5 (MSSE 16-5, isolated from patients in China, read-out: MIC); 16 µg/mL with S.s ATCC 15305 (setting [2]). Also, the MIC in the series on S.h ATCC 35982 (S. hominis ATCC 35982, read-out: MIC) is 4 µg/mL; in the series with MRSA 13-18 (MRSA 13-18, read-out: MIC), 4 µg/mL; with MRSA 13-23 (MRSA 13-23, read-out: MIC) it was 8 µg/mL; with MRSA 16-34 (MRSA 16-34, read-out: MIC), 8 µg/mL; with MRSA ATCC 43300 (MRSA ATCC 43300, read-out: MIC) it was 4 µg/mL; in the series with MRSA ATCC-B AA-1708 (setting [3]), 8 µg/mL. Moreover, the MIC in the series with MRSA ATCC -BAA-976 (MRSA ATCC-BAA-976, clindamycin-resistant S. aureus, read-out: MIC) turned out to be 4 µg/mL; in the series with VISA ATCC 700698 (setting [4]) it was 4 µg/mL; with VISA ATCC 700699 (setting [5]), 4 µg/mL; in the series on MRSE 13-3 (MRSE 13-3, read-out: MIC), 16 µg/mL; in the series on MRSE 16-5 (MRSE 16-5, read-out: MIC), 8 µg/mL.
On to `CCOC(=O)[C@H](CCc1ccccc1)N[C@@H](C)C(=O)N1CCC[C@H]1C(=O)O` [Ems, enalapril], for which, in the series “Stability in whole blood”, the “stability in whole blood” value is “completely decomposed”. The “Rr (remaining ratio)” value worked out at 100% in the series “Stability in whole blood” (0 h); 37.5% in the series “Stability in whole blood” (0.5 h); 9.1% in “Stability in whole blood” (1 h); 0% in the series “Stability in whole blood” (3 h); 0% in the series “Stability in whole blood” (7 h); 0% in the series “Stability in whole blood” (24 h).
Consider `C[C@H]1COc2c(N3CCN(C)CC3)c(F)cc3c(=O)c(C(=O)O)cn1c23` [Lev, levofloxacin, reference compound], for which the MIC with MSSA ATCC 29213 came out at 0.125 µg/mL (≈ 0.346 µM); against MSSA 15 (MSSA), 0.125 µg/mL (≈ 0.346 µM); in the series on MSSA 16-1 (setting [1]), 0.25 µg/mL (≈ 0.692 µM); with MSSE ATCC 12228 (ATCC12228, 18 h, MSSE ATCC 12228, read-out: MIC) it was 0.126 µg/mL (≈ 0.349 µM); against MSSE 16-5, 0.125 µg/mL (≈ 0.346 µM); in the series with S.s ATCC 15305 (setting [2]) it was 1 µg/mL (≈ 2.77 µM). Also, the minimal inhibitory concentration (MIC) with S.h ATCC 35982 was found to be 0.125 µg/mL (≈ 0.346 µM); in the series with MRSA 13-18 (MRSA 13-18, read-out: MIC), 32 µg/mL (≈ 88.6 µM); with MRSA 13-23 (MRSA 13-23, read-out: MIC), 64 µg/mL (≈ 177 µM); in the series on MRSA 16-34 (MRSA 16-34, read-out: MIC), 64 µg/mL (≈ 177 µM); with MRSA ATCC 43300 (MRSA ATCC 43300, read-out: MIC), 32 µg/mL (≈ 88.6 µM); in the series with MRSA ATCC-B AA-1708 (setting [3]), 16 µg/mL (≈ 44.3 µM). In addition, the MIC against MRSA ATCC -BAA-976 worked out at 0.125 µg/mL (≈ 0.346 µM); in the series on VISA ATCC 700698 (setting [4]) it was 32 µg/mL (≈ 88.6 µM); in the series on VISA ATCC 700699 (setting [5]), 8 µg/mL (≈ 22.1 µM); in the series on MRSE 13-3 (MRSE 13-3, read-out: MIC), 32 µg/mL (≈ 88.6 µM); in the series on MRSE 16-5 (MRSE 16-5, read-out: MIC) it was 8 µg/mL (≈ 22.1 µM).
Turning to `COc1ccc2c(c[n+]3c4c2ccc2c5c(cc(c24)CC3)OCO5)c1O` [compound 1, reference compound], the MIC is 0.5 µg/mL with MSSA ATCC 29213; 4 µg/mL against MSSA 15 (MSSA); 1 µg/mL in the series on MSSA 16-1 (MSSA); 0.5 µg/mL in the series with MSSE ATCC 12228 (ATCC12228); 0.5 µg/mL against MSSE 16-5; above 64 µg/mL with S.s ATCC 15305. Also, the minimum inhibitory concentration (MIC) in the series on S.h ATCC 35982 came to 1 µg/mL; with MRSA 13-18 (MRSA), 1 µg/mL; with MRSA 13-23 (MRSA) it was 1 µg/mL; in the series with MRSA 16-34 (MRSA), 0.5 µg/mL; with MRSA ATCC 43300, 0.5 µg/mL; in the series with MRSA ATCC-B AA-1708, 0.5 µg/mL. Moreover, the MIC in the series on MRSA ATCC -BAA-976 is 1 µg/mL; against VISA ATCC 700698, 1 µg/mL; against VISA ATCC 700699, 0.5 µg/mL; in the series with MRSE 13-3 (MRSE), above 64 µg/mL; against MRSE 16-5 (MRSE), 0.5 µg/mL.
